The source of these data is PMC9076072 (RSC Advances, 2019).

In this data set the test system is RAW 264.7 macrophages. Briefly: Macrophage cytotoxicity seen in the anti-inflammatory assay.

The structures appear in SMILES notation.

Turning to `C[C@H]1[C@H](C)CC[C@]2(C(=O)O)CC[C@]3(C)C(=CC[C@@H]4[C@@]5(C)CC[C@H](O)C(C)(C)[C@@H]5CC[C@]43C)[C@H]12` [Compound 2, Ursolic acid], the “Concentration at which macrophage cytotoxicity appeared” value is 20 µM.
`C=C(C)[C@@H]1CC[C@]2(C(=O)O)CC[C@]3(C)[C@H](CC[C@@H]4[C@@]5(C)CC[C@H](O)C(C)(C)[C@@H]5CC[C@]43C)[C@@H]12` [Compound 1, Betulinic acid]: the “Concentration at which macrophage cytotoxicity appeared” value came out at 20 µM.
